In patent US8524755B2 (priority 2009, dated 2013):

Experiments:
[1] = target: T1, Bradykinin B1 (h) (Homo sapiens, UniProt P46663); assay: Binding B1 (h) (ag); settings: read-out: % Inhibition of Control Specific Binding @ 10 μM
T1 construct: expressed in transfected cells; host or cells: CHO cells
T1 sequence (P46663 1-353): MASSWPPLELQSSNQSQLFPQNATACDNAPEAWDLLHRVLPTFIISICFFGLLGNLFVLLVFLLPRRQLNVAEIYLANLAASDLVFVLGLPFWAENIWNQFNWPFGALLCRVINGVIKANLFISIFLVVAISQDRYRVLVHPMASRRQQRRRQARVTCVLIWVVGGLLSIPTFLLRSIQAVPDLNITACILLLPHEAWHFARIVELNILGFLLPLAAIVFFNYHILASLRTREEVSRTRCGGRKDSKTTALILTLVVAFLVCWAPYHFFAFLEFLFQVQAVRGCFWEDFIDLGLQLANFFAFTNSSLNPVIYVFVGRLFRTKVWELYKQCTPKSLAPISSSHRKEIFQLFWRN
Procedure: (§1) Radioligand binding assay methods utilized to measure the activity of compounds of the invention will be familiar to those skilled in the art. In each assay case, the assay components such as, for example, the cell-type, ligand, reference compound and the like, will be familiar to practitioners of such an assay.
(§2) Analysis and Expression of Results: Compounds of the invention were tested in the biochemical assays and percent inhibition of specific binding was determined. The specific ligand binding to the receptors is defined as the difference between the total binding and the nonspecific binding determined in the presence of an excess of unlabelled ligand. The results are expressed as a percent inhibition of control specific binding (100−((measured specific binding/control specific binding)×100)) obtained in the presence of test compounds.

[2] = target: T2, Dopamine D3 (h) (Homo sapiens, UniProt P35462); assay: Binding D3 (h) (aa); settings: read-out: % Inhibition of Control Specific Binding @ 10 μM
T2 construct: expressed in transfected cells; host or cells: CHO cells
T2 sequence (P35462 whole entry): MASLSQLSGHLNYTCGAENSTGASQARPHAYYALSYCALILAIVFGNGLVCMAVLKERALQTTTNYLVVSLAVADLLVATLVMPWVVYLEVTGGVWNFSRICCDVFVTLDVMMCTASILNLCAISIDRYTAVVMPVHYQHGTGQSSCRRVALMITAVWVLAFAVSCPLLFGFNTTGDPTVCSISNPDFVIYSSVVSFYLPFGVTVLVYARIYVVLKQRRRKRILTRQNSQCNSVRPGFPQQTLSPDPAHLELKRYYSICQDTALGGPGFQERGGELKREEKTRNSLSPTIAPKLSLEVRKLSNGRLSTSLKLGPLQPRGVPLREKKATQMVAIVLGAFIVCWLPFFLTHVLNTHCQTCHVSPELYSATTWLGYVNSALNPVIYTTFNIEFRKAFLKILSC
Procedure: as §1, §2

[3] = target: T3, Melanocortin MC4 (h) (Homo sapiens, UniProt P32245); assay: Binding MC4 (h) (ag); settings: read-out: % Inhibition of Control Specific Binding @ 10 μM
T3 construct: expressed in transfected cells; host or cells: CHO cells
T3 sequence (P32245 whole entry): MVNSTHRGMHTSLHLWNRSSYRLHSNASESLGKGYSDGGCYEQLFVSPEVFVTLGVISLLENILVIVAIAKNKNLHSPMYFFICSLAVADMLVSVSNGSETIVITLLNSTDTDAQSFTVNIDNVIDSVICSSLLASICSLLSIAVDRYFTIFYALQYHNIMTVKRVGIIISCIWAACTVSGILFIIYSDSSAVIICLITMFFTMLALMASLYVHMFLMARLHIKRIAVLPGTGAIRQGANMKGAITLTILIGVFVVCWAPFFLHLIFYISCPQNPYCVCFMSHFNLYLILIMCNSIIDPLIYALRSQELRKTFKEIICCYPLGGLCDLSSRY
Procedure: as §1, §2

[4] = target: T4, Neurokinin NK1 (h) (Homo sapiens, UniProt P25103); assay: Binding NK1 (h) (ag); settings: read-out: % Inhibition of Control Specific Binding @ 10 μM
T4 construct: (endogenous); endogenous in cells; host or cells: U-373MG cells
T4 sequence (P25103 whole entry): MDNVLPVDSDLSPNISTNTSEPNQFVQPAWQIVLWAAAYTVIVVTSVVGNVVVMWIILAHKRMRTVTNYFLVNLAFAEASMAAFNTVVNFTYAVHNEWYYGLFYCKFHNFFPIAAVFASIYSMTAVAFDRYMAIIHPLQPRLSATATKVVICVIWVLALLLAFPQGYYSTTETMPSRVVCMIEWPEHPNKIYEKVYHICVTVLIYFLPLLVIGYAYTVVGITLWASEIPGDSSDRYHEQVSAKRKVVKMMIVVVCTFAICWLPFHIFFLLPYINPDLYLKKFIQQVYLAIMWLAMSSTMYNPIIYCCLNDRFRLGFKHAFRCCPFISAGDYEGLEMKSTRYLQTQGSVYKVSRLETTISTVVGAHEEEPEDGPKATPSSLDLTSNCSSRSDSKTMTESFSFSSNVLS
Procedure: as §1, §2

[5] = test system: opioid (ns); assay: Binding opioid (ns) (aa); set-up: species or system rat
Procedure: as §1, §2

[6] = test system: σ (ns); assay: Binding σ (ns) (ag); set-up: species or system rat
Procedure: as §1, §2

[7] = target: T5, hERG (Homo sapiens, UniProt Q12809); assay: Binding hERG (membrane preparation) (aa); settings: read-out: % Inhibition of Control Specific Binding @ 10 μM
T5 construct: expressed in transfected cells; host or cells: HEK-293 cells
T5 sequence (Q12809 whole entry): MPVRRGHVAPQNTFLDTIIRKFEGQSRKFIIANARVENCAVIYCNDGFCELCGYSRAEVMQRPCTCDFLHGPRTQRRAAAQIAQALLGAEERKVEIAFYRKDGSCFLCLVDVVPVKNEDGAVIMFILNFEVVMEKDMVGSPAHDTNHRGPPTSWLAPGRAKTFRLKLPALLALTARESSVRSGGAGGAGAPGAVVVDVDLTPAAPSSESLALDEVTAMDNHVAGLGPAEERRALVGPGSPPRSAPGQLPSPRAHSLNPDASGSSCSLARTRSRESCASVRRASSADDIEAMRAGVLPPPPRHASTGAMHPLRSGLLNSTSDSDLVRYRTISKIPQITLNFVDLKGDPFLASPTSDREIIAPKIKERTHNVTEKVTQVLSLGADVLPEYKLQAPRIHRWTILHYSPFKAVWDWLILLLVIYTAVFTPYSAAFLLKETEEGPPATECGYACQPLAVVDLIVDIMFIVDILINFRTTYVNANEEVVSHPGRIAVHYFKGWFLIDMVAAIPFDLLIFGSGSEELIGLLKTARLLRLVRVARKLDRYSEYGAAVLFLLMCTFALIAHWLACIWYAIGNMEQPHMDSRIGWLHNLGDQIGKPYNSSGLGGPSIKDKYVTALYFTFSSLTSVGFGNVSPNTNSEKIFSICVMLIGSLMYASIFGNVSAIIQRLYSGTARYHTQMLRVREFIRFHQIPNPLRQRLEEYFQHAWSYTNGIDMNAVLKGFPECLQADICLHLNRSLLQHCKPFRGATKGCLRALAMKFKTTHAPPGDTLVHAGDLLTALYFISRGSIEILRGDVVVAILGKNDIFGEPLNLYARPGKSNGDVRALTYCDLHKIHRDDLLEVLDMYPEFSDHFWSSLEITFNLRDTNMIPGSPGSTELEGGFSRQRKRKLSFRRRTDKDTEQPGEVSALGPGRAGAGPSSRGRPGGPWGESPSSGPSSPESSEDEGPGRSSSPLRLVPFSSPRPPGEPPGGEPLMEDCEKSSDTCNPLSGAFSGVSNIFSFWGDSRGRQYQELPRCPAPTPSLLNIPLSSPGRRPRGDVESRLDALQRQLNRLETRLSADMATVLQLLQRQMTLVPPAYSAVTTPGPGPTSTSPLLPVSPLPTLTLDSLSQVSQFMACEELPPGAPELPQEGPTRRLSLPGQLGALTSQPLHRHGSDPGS
Procedure: as §1, §2

[8] = target: T6, PNMT (Bos taurus, UniProt P10938); assay: Enzyme assay PNMT; type: biochemical, bovine; settings: read-out: % Inhibition of Control Values @ 10 μM
T6 construct: bovine adrenal medulla; from tissue; host or cells: bovine adrenal medulla
T6 sequence (P10938 1-283): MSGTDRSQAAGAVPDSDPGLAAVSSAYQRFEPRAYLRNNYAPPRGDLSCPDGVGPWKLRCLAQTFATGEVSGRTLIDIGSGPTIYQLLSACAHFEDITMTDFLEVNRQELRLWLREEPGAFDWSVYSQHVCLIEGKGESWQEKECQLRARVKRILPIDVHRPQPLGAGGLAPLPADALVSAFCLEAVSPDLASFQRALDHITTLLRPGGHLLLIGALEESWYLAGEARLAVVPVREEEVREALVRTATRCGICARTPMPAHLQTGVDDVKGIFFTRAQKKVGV
From the text: The enzyme assays provided below will be familiar to those skilled in the art.
Analysis and Expression of Results: The results are expressed as a percent of control specific activity ((measured specific activity/control specific activity)×100) obtained in the presence of the test compounds.

[9] = [14C]RD162′ radio-HPLC metabolite profile in Pooled Rat Plasma; type: in vivo, Sprague Dawley rats; settings: [14C]RD162′ 100 mg/kg/day oral, day 7, 4 h
Procedure: The rats were dosed once a day for seven consecutive days; four hours after dosing on the seventh day, plasma was collected from all three rats. The plasma samples were stored at approximately −70° C. or colder.
Positive ion electrospray LC/MS and LC/MS/MS were used to analyze the metabolites.
To prepare the Pooled Rat Plasma for HPLC analysis, approximately 1 g of the plasma sample was combined with acetonitrile (ACN, sample:ACN, 1:3, v:v), vortex mixed, sonicated in cold water, centrifuged, and the supernatants were removed. The extraction was repeated twice and the respective supernatants were combined. […] The combined supernatants were evaporated to dryness and reconstituted in 1 mL of 0.1% formic acid in reverse osmosis (RO) water:ACN: methanol (MeOH, 50:45:5, v:v:v). […] The reconstituted sample was analyzed by HPLC to determine the metabolite profile with fractions collected at 10-second intervals and analyzed by solid scintillation counting.
The prepared samples were analyzed using the following LC/MS/MS conditions: HPLC: Hewlett Packard 1100 series; Mobile Phase: 0.1% formic acid in reverse osmosis water (A) and acetonitrile (B); Column: Agilent Eclipse XDB-C18, 4.6×150 mm, 5 μm; Guard column: Phenomenex Security Guard Cartridge C18, 3×4 mm; Column temperature: 20° C.; Gradient: 20-80% B in 40 min; Flow Rate: 1.5 mL/min.

| SMILES | inhibition at 10 µM [1] [%] | inhibition at 10 µM [2] [%] | inhibition at 10 µM [3] [%] | inhibition at 10 µM [4] [%] | % Inhibition of Control Specific Binding @ 10 μM [5] [%] | % Inhibition of Control Specific Binding @ 10 μM [6] [%] | inhibition at 10 µM [7] [%] | inhibition at 10 µM [8] [%] | % Injected Radioactivity (%) [9] [%] | % Recovered Radioactivity (%) [9] [%] | Peak Area (mV) [9] [mV] | Peak Height (mV) [9] [mV] |
| --- | --- | --- | --- | --- | --- | --- | --- | --- | --- | --- | --- | --- |
| CC1(C)C(=O)N(c2ccc(C#N)c(C(F)(F)F)c2)C(=S)N1c1ccc(C(=O)O)c(F)c1 [(MI), 4-(3-(4-cyano-3-(trifluoromethyl)phenyl)-5,5-dimethyl-4-oxo-2-thioxoimidazolidin-1-yl)-2-fluorobenzoic acid] | 0 | 7 | -23 | -7 | −6 | 20 | -39 | -6 | 11.02 | 17.31 | 589 | 86 |
| CC1(C)C(=O)N(c2ccc(C#N)c(C(F)(F)F)c2)C(=S)N1c1ccc(C(N)=O)c(F)c1 [(MII), 4-(3-(4-Cyano-3-(trifluoromethyl)phenyl)-5,5-dimethyl-4-oxo-2-thioxoimidazolidin-1-yl)-2-fluorobenzamide] | 6 | 11 | -25 | 9 | −14 | 39 | 7 | -4 | 5.38 | 8.45 | 288 | 43 |
| CC1(C)C(=O)N(c2ccc(C#N)c(C(F)(F)F)c2)C(=O)N1c1ccc(C(N)=O)c(F)c1 [(MIII), 4-(3-(4-cyano-3-(trifluoromethyl)phenyl)-5,5-dimethyl-2,4-dioxoimidazolidin-1-yl)-2-fluorobenzamide] | 5 | 0 | -11 | -9 | −15 | 34 | 8 | -2 | 7.96 | 12.50 | 426 | 77 |
| CNC(=O)c1ccc(N2C(=O)N(c3ccc(C#N)c(C(F)(F)F)c3)C(=O)C2(C)C)cc1F [(MIV), 4-(3-(4-cyano-3-(trifluoromethyl)phenyl)-5,5-dimethyl-2,4-dioxoimidazolidin-1-yl)-2-fluoro-N-methylbenzamide] | 4 | 7 | -15 | -7 | −10 | 50 | 10 | 14 | 8.45 | 13.27 | 452 | 63 |
